Experimental findings from ChEMBL document CHEMBL1938368, “Structure-activity relationship of naphthaldehydethiosemicarbazones in melanogenesis inhibition” (Bioorg Med Chem Lett, 2012) are described below.

Assay [1] deals with B16. Put plainly: Antimelanogenic activity at alpha-MSH-stimulated mouse melanoma B16 cells at 10 uM after 3 days by spectrophotometry. In kind it is functional. To be noted: B16, 72 h.
Assay [2] deals with B16. Kind of assay: Antimelanogenic activity at alpha-MSH-stimulated mouse melanoma B16 cells after 3 days by spectrophotometry. As to conditions: B16, 72 h. In kind it is functional, cell-based.

The inhibition is the change of the read-out against control, counted positive when it falls. Higher therefore signals a response far below the control. In general, IC50 refers to the point on the concentration scale where inhibition reaches its midpoint. Low readings indicate inhibition by little substance, high ones a need for much substance. Take `S=C(N/N=C/c1cccc2ccccc12)NC1CCCCC1`: the inhibition at 10 µM in assay [1] is > 100%. The IC50 in assay [2] is 290 nM.

For `Cc1cccc(NC(=S)N/N=C/c2cccc3ccccc23)c1`, the inhibition at 10 µM in assay [1] was > 100%. Also, the half-maximal inhibitory concentration (IC50) in assay [2] stood at 450 nM.

On to `NC(=O)N/N=C/c1cccc2ccccc12`, for which the inhibition at 10 µM in assay [1] was < 10%. The IC50 in assay [2] was > 100000 nM.

Take `S=C(N/N=C/c1cccc2ccccc12)Nc1ccc(Cl)cc1`: the inhibition at 10 µM in assay [1] was > 100%. In assay [2], 1900 nM corresponded to half-maximal inhibition (IC50).

`Cc1ccc(NC(=S)N/N=C/c2cccc3ccccc23)cc1`: the inhibition at 10 µM in assay [1] is > 100%. Moreover, the concentration for half-maximal inhibition (IC50) in assay [2] was found to be 580 nM.

`CN(C)C(=S)N/N=C/c1cccc2ccccc12`: the inhibition at 10 µM in assay [1] is > 100%. For the same molecule, half-maximal inhibition in assay [2] (IC50) required 280 nM.

Take `COc1ccc(NC(=S)N/N=C/c2cccc3ccccc23)cc1`: the inhibition at 10 µM in assay [1] is > 100%. Further, the IC50 in assay [2] came out at 860 nM.

As for `COc1cccc(NC(=S)N/N=C/c2cccc3ccccc23)c1`, in assay [1], the inhibition at 10 µM is > 100%. Half-maximal inhibition in assay [2] (IC50) was put at 830 nM.

On to `COc1ccccc1NC(=S)N/N=C/c1cccc2ccccc12`, for which the inhibition at 10 µM in assay [1] was > 100%. Besides, in assay [2], inhibition was half-maximal at 920 nM (IC50).

For the molecule `CNC(=S)N/N=C/c1cccc2ccccc12`, in assay [1], the inhibition at 10 µM was > 100%. Moreover, inhibition in assay [2] was half-maximal at 2000 nM (IC50).

Turning to `S=C(N/N=C/c1cccc2ccccc12)Nc1ccccc1`, the inhibition at 10 µM in assay [1] was > 100%. The molecule further gave a half-maximal inhibitory concentration (IC50) in assay [2] of 500 nM.

With `Cc1ccccc1NC(=S)N/N=C/c1cccc2ccccc12`, in assay [1], the inhibition at 10 µM was > 100%. The half-inhibitory concentration (IC50) in assay [2] was 490 nM.

Turning to `CN(/N=C/c1cccc2ccccc12)C(N)=S`, the inhibition at 10 µM in assay [1] is > 100%. This molecule also showed a concentration for half-maximal inhibition (IC50) in assay [2] of 1600 nM.

`CN(C)C(=S)N(C)/N=C/c1cccc2ccccc12` returned an inhibition at 10 µM in assay [1] of 76%. The molecule also registered an IC50 in assay [2] of 8600 nM.

On to `CCNC(=S)N/N=C/c1cccc2ccccc12`, for which, in assay [1], the inhibition at 10 µM is > 100%. The molecule also yielded an IC50 in assay [2] of 1100 nM.

On to `S=C(NCc1ccccc1)N/N=C/c1cccc2ccccc12`, for which, in assay [1], the inhibition at 10 µM was > 100%. In assay [2], this molecule yielded an IC50 of 270 nM.
